# Experimental data taken from publication PMC5856786, “A DHODH inhibitor increases p53 synthesis and enhances tumor cell killing by p53 degradation blockage” (Nature Communications, 2018).
# Experiments:
# ARN8 xenograft = assay: ARN8 subcutaneous xenograft; assay type: in vivo; details: for toxicity in xenograft study: mice, (R)-HZ00 150 mg kg−1 i.p. q.d., nutlin-3 100 mg kg−1 p.o. q.d.
# Protocol: All animal xenograft experiments were approved by the Norwegian Animal Research Authority and conducted according to The European Convention for the Protection of Vertebrates Used for Scientific Purposes. […] The health status and weight of the mice were monitored daily and they were randomized in a non-blinded manner into 4 groups when tumor volumes reached 30–40 mm^3. […] Tumor volumes were measured every second day by a digital caliper using the following ellipsoid formula: Volume = π (length × width × height)/6.
# To determine the efficacy of (R)-HZ05 in combination with nutlin-3a, 4 groups of NSG mice (n = 8 per group) were subcutaneously injected in the flank region with a single 100 μL injection of 2 × 10^6 ARN8 cells in a solution of PBS:Matrigel (volume ratio 3:1). Treatment was initiated when tumors reached ~50 mm^3. The maximum tolerated dose for this combination of drugs was previously determined for the strain we used. The endpoint of the experiment was determined by the tumor size ([…]) weight loss, and general condition of the mice according to The Norwegian Animal Research Authority.
# [1] = system: p53-dependent transcription in ARN8 human melanoma cells; assay: p53-dependent transcription reporter (CPRG assay) in ARN8 cells; assay type: cell-based; details: ARN8, 16 h
# Protocol: A 20,000 compound library was purchased from ChemBridge consisting of 10,000 from the DIVERSet and 10,000 from the CombiSet libraries. […] A total of 30,000 additional compounds from the ChemBridge DIVERSet that were previously screened in a T22 cell background[12] were re-screened in ARN8 cells at 5 µM. The ChemBridge codes for these compounds can be made available upon request. All chemical synthesis is detailed in Supplementary Information with NMR spectra and reaction schemes detailed in Supplementary Figs. 13–19.
# CDK4/CycD1 = CDK4/CycD1 (Homo sapiens, UniProt P11802); assay: biochemical; set-up: radiometric 33PanQinase protein kinase activity assay, CDK/cyclin panel, per cent remaining activity; details: read-out: (R)-HZ00 10 µM Average (% remaining activity)
# Source text: (§1) Supplementary Table 1. In vitro inhibition (% remaining activity) of cyclin-dependent
# (§2) ProQinase GmbH (Freiburg, Germany) using a radiometric protein kinase assay
# (§3) (33PanQinase® Activity Assay).
# (§4) (1 picture or pasted object on this page, not shown here) 32 Supplementary Table 1. In vitro inhibition (% remaining activity) of cyclin-dependent kinases (CDKs).
# CDK7/CycH/MAT1 = CDK7/CycH/MAT1 (Homo sapiens, UniProt P50613); assay: biochemical; set-up: radiometric 33PanQinase protein kinase activity assay, CDK/cyclin panel, per cent remaining activity; details: read-out: (R)-HZ00 10 µM Average (% remaining activity)
# Source text: as §1, §2, §3, §4
# CDK1/CycE1 = CDK1/CycE1 (Homo sapiens, UniProt P06493); assay: biochemical; set-up: radiometric 33PanQinase protein kinase activity assay, CDK/cyclin panel, per cent remaining activity; details: read-out: (R)-HZ00 10 µM Average (% remaining activity)
# Source text: as §1, §2, §3, §4
# CDK2/CycA2 = CDK2/CycA2 (Homo sapiens, UniProt P24941); assay: biochemical; set-up: radiometric 33PanQinase protein kinase activity assay, CDK/cyclin panel, per cent remaining activity; details: read-out: (R)-HZ00 10 µM Average (% remaining activity)
# Source text: as §1, §2, §3, §4
# CDK4/CycD3 = CDK4/CycD3 (Homo sapiens, UniProt P11802); assay: biochemical; set-up: radiometric 33PanQinase protein kinase activity assay, CDK/cyclin panel, per cent remaining activity; details: read-out: (R)-HZ00 10 µM Average (% remaining activity)
# Source text: as §1, §2, §3, §4
# CDK8/CycC = CDK8/CycC (Homo sapiens, UniProt P49336); assay: biochemical; set-up: radiometric 33PanQinase protein kinase activity assay, CDK/cyclin panel, per cent remaining activity; details: read-out: (R)-HZ00 10 µM Average (% remaining activity)
# Source text: as §1, §2, §3, §4
# CDK3/CycE1 = CDK3/CycE1 (Homo sapiens, UniProt Q00526); assay: biochemical; set-up: radiometric 33PanQinase protein kinase activity assay, CDK/cyclin panel, per cent remaining activity; details: read-out: (R)-HZ00 10 µM Average (% remaining activity)
# Source text: as §1, §2, §3, §4
# CDK6/CycD1 = CDK6/CycD1 (Homo sapiens, UniProt Q00534); assay: biochemical; set-up: radiometric 33PanQinase protein kinase activity assay, CDK/cyclin panel, per cent remaining activity; details: read-out: (R)-HZ00 10 µM Average (% remaining activity)
# Source text: as §1, §2, §3, §4
# CDK2/CycE1 = CDK2/CycE1 (Homo sapiens, UniProt P24941); assay: biochemical; set-up: radiometric 33PanQinase protein kinase activity assay, CDK/cyclin panel, per cent remaining activity; details: read-out: (R)-HZ00 10 µM Average (% remaining activity)
# Source text: as §1, §2, §3, §4
# CDK9/CycK = CDK9/CycK (Homo sapiens, UniProt P50750); assay: biochemical; set-up: radiometric 33PanQinase protein kinase activity assay, CDK/cyclin panel, per cent remaining activity; details: read-out: (R)-HZ00 10 µM Average (% remaining activity)
# Source text: as §1, §2, §3, §4
# CDK5/p25NCK = biological target: T1, CDK5/p25NCK (Homo sapiens, UniProt Q00535); assay: biochemical; set-up: radiometric 33PanQinase protein kinase activity assay, CDK/cyclin panel, per cent remaining activity; details: read-out: (R)-HZ00 10 µM Average (% remaining activity)
# T1 construct: p25
# Source text: as §1, §2, §3, §4
# CDK9/CycT1 = CDK9/CycT1 (Homo sapiens, UniProt P50750); assay: biochemical; set-up: radiometric 33PanQinase protein kinase activity assay, CDK/cyclin panel, per cent remaining activity; details: read-out: (R)-HZ00 10 µM Average (% remaining activity)
# Source text: as §1, §2, §3, §4
# CDK1/CycB1 = CDK1/CycB1 (Homo sapiens, UniProt P06493); assay: biochemical; set-up: radiometric 33PanQinase protein kinase activity assay, CDK/cyclin panel, per cent remaining activity; details: read-out: (R)-HZ00 10 µM Average (% remaining activity)
# Source text: as §1, §2, §3, §4
# CDK1/CycA2 = CDK1/CycA2 (Homo sapiens, UniProt P06493); assay: biochemical; set-up: radiometric 33PanQinase protein kinase activity assay, CDK/cyclin panel, per cent remaining activity; details: read-out: (R)-HZ00 10 µM Average (% remaining activity)
# Source text: as §1, §2, §3, §4
# CDK5/p35NCK = biological target: T2, CDK5/p35NCK (Homo sapiens, UniProt Q00535); assay: biochemical; set-up: radiometric 33PanQinase protein kinase activity assay, CDK/cyclin panel, per cent remaining activity; details: read-out: (R)-HZ00 10 µM Average (% remaining activity)
# T2 construct: p35
# Source text: as §1, §2, §3, §4
# PCTAIRE1/CycY = biological target: T3, PCTAIRE1/CycY (Homo sapiens, UniProt Q00536); assay: biochemical; set-up: radiometric 33PanQinase protein kinase activity assay, CDK/cyclin panel, per cent remaining activity; details: read-out: (R)-HZ00 10 µM Average (% remaining activity)
# T3 construct: gene CDK16
# Source text: as §1, §2, §3, §4
# ARN8 cells = assay: Giemsa staining of ARN8 cultures (uridine, orotic acid, dihydroorotic acid supplementation); assay type: cell-based, human; details: 72 h, 2.5 or 5 μM uridine, serum replacement medium
# Protocol: Additionally, ARN8 cells were treated for 16 h and p53-dependent transcription was measured by CPRG assay. Values correspond to the average of three technical repeats ± SD. c Simplified description of the pyrimidine nucleotide de novo (blue) and salvage (black) pathways. d ARN8 cells were seeded in FBS supplemented DMEM with a change to serum replacement medium 24 h post seeding. […] Values correspond to the average of three technical repeats ± SD. f ARN8 cells were seeded in FBS supplemented DMEM with a change to serum replacement medium 24 h post seeding.
# [2] = Pharmacokinetic study, nutlin-3 single or co-administered with (R)-HZ00; assay type: in vivo, NOD-SCID mice; details: mice; nutlin-3 100 mg kg-1 oral + (R)-HZ00 150 mg kg-1 i.p.
# Protocol: Waters Acquity UPLC (Waters Corp.) was used for all LC/MS and LC/MS/MS experiments. For chromatographic separation a general gradient was used (5 % mobile phase B to 90 % over 2 min total run) on a C18 BEH 1.7 µm column 2 × 50 mm (Waters Corp.). Mobile phase A consisted of 5 % acetonitrile 0.1 % formic acid and mobile phase B 100 % acetonitrile 0.1 % formic acid. The flow rate was 0.5 mL min-1 and 3 µL of the sample was injected. A standard curve between 3−1000 nM was prepared for each compound.
# Cocrystallization, data collection and structure determination of DHODH with inhibitor HZ05 Co-crystals were prepared similar to previously described6. In short 18 mg mL-1 DHODH (dissolved in 10 mM N,N-dimethylundecylamine N-oxide (C11DAO) (Fluka), 400 mM NaCl, 1 mM EDTA, 100 mM HEPES (pH 7), and 30 % glycerol) was mixed in a 1:1 ratio with 2 M NH4SO4, 0.1 M Na Acetate pH 4.8, 30 mM N,N-dimethyldodecylamine N-oxide (DDAO), 15 mM C11DAO, 2 mM L-dihydroorotic acid, 1 mM HZ05 and 6 % DMSO. The crystals did grow from hanging drops at 20°C in a VDX plate; 2.5 µL protein solution mixed with 2.5 µL reservoir (30 % (v/v) glycerol, 0.1 M Na acetate pH 4.8 and 2 M NH4SO4). A crystal was flashfrozen in liquid nitrogen and data was collected to 1.7 Å at Diamond Light Source beamline i02. The structure was determined using Molecular Replacement and refined in Refmac57. […]
# T3 sequence (Q00536 whole entry): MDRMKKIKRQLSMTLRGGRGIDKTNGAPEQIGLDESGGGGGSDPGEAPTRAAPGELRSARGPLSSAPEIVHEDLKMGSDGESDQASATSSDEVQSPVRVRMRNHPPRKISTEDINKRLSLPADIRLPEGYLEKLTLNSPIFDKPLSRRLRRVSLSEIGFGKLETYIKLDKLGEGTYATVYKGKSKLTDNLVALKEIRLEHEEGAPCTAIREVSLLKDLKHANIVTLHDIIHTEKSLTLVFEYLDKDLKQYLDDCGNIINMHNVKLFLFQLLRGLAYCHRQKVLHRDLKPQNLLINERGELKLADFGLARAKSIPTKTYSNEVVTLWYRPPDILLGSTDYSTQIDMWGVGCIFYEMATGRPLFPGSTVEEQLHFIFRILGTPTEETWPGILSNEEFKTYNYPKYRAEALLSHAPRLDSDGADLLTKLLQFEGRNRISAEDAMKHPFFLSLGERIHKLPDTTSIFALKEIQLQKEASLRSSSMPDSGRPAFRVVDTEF
# T3 sequence (Q8ND76 whole entry partner): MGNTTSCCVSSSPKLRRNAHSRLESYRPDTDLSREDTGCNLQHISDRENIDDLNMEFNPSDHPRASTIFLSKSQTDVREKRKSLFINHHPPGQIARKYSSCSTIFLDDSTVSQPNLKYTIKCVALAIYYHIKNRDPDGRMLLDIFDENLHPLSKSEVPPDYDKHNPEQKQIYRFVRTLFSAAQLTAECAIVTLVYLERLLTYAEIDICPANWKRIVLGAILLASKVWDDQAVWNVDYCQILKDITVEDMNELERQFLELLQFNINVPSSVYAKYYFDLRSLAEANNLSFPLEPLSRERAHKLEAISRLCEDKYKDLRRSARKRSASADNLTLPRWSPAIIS
# T2 sequence (Q00535 whole entry): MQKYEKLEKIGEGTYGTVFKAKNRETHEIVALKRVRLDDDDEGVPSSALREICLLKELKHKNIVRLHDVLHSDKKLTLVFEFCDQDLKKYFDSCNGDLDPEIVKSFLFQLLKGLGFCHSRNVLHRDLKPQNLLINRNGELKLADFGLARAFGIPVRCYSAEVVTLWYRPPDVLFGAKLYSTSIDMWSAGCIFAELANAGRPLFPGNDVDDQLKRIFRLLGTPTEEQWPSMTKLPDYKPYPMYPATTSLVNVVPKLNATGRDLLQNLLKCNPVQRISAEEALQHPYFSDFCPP
# T2 sequence (Q15078 whole entry partner): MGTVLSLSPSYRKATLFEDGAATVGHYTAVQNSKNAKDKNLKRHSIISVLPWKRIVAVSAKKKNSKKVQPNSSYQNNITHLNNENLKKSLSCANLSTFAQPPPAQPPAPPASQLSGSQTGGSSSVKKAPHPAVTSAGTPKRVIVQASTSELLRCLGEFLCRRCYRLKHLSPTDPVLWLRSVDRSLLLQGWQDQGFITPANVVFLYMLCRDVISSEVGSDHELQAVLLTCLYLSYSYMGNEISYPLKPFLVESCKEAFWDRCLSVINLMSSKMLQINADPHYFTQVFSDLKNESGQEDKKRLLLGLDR
# T1 sequence (Q00535 whole entry): as the sequence (Q00535 whole entry) above
# T1 sequence (Q15078 whole entry partner): as the sequence (Q15078 whole entry partner) above
# Sequence of CDK7/CycH/MAT1 (P50613 whole entry): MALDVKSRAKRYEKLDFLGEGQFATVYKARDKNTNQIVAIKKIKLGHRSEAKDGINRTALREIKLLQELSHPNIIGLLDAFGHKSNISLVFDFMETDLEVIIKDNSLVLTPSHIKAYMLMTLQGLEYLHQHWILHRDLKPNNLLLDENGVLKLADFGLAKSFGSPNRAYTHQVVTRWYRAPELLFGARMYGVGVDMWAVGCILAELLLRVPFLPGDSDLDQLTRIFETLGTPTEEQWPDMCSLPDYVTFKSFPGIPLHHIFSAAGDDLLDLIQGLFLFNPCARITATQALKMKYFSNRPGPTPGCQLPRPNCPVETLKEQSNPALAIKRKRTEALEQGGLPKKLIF
# Sequence of CDK7/CycH/MAT1 (P51946 whole entry partner): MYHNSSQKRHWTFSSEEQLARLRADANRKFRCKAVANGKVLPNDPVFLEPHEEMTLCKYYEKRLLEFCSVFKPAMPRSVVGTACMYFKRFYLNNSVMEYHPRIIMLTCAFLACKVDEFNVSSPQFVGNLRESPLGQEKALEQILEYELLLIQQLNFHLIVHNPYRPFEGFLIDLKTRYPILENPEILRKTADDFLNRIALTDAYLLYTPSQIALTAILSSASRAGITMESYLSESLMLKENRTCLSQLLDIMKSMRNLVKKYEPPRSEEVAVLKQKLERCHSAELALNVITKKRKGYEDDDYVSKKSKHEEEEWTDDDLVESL
# Sequence of CDK7/CycH/MAT1 (P51948 whole entry partner): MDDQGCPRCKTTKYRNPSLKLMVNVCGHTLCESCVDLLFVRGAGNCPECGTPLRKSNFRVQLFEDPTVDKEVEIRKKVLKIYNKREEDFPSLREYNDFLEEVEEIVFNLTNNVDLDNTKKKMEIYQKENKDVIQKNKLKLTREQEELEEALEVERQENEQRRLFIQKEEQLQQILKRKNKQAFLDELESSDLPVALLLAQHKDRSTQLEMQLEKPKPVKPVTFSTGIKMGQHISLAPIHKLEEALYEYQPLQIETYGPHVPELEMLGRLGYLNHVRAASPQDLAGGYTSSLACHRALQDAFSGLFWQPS
# Sequence of CDK6/CycD1 (Q00534 whole entry): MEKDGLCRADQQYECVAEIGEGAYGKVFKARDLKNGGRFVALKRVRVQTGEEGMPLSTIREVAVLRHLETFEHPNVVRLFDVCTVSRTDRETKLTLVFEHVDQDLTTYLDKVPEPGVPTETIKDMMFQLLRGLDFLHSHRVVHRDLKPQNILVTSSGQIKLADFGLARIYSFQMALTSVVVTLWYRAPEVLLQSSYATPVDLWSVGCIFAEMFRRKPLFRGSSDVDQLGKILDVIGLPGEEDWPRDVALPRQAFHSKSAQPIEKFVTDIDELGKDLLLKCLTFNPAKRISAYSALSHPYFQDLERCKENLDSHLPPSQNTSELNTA
# Sequence of CDK6/CycD1 (P24385 whole entry partner): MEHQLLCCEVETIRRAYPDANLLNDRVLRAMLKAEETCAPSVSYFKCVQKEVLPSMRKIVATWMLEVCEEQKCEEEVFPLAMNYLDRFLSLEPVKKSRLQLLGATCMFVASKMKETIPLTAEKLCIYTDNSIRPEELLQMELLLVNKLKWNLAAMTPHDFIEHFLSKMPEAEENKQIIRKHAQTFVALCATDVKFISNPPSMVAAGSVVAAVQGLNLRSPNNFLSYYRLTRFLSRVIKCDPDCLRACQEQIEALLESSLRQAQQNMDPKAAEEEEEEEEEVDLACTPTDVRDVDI
# Sequence of CDK9/CycK (P50750 whole entry): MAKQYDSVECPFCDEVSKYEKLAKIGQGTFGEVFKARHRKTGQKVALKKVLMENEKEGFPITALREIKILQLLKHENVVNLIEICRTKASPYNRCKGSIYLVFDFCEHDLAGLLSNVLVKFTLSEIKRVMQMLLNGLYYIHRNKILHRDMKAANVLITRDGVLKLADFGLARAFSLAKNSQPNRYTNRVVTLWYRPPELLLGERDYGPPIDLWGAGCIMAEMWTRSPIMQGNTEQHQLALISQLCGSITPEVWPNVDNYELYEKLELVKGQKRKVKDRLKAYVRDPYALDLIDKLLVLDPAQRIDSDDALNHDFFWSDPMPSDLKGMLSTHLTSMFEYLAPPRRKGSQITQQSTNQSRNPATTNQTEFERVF
# Sequence of CDK9/CycK (O75909 whole entry partner): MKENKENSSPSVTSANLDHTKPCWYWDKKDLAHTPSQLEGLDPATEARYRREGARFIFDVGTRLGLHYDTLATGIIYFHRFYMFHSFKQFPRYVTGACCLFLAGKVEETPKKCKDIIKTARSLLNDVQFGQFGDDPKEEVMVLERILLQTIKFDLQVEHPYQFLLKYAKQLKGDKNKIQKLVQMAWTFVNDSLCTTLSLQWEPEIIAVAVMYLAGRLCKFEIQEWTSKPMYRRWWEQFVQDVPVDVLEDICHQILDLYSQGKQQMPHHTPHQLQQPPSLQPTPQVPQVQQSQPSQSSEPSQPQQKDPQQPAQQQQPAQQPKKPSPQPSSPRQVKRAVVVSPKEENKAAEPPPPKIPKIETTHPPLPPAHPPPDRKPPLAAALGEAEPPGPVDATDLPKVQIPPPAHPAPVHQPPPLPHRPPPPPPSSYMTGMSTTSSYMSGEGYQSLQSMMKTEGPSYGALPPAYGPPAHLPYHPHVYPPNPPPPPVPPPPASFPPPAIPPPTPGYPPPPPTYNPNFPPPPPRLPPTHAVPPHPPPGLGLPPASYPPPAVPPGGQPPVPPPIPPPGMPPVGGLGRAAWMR
# Sequence of CDK4/CycD1 (P11802 whole entry): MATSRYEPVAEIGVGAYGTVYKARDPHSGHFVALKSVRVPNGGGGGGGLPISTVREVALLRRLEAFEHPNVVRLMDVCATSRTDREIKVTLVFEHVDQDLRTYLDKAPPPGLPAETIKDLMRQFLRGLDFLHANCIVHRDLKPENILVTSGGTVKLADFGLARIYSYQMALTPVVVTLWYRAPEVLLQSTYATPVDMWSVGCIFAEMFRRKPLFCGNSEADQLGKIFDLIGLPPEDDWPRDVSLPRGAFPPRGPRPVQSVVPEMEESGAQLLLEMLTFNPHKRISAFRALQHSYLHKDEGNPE
# Sequence of CDK4/CycD1 (P24385 whole entry partner): as the sequence (P24385 whole entry partner) above
structure (smiles),measurement,setting,value
O=C(N[C@@H]1CCCc2c1cnn2-c1ccccc1F)c1ccccn1 [(R)-HZ00],"xenograft tumor growth, combination with nutlin-3",ARN8 xenograft; (R)-HZ00 150 mg kg−1 i.p. q.d. + nutlin-3 100 mg kg−1 p.o. q.d.,significant ARN8 xenograft tumor growth inhibition
same,toxicity in xenograft study,ARN8 xenograft,not toxic
same,"p53 reporter activity, (R)- versus (S)-enantiomer",[1],significantly higher p53 reporter activity
same,remaining activity at 10 µM,CDK4/CycD1,104%
same,remaining activity at 10 µM,CDK7/CycH/MAT1,105%
same,remaining activity at 10 µM,CDK1/CycE1,103%
same,remaining activity at 10 µM,CDK2/CycA2,101%
same,remaining activity at 10 µM,CDK4/CycD3,98.3%
same,remaining activity at 10 µM,CDK8/CycC,92.4%
same,remaining activity at 10 µM,CDK3/CycE1,90.8%
same,remaining activity at 10 µM,CDK6/CycD1,97.1%
same,remaining activity at 10 µM,CDK2/CycE1,96.8%
same,remaining activity at 10 µM,CDK9/CycK,95.9%
same,remaining activity at 10 µM,CDK5/p25NCK,113%
same,remaining activity at 10 µM,CDK9/CycT1,107%
same,remaining activity at 10 µM,CDK1/CycB1,100%
same,remaining activity at 10 µM,CDK1/CycA2,90.9%
same,remaining activity at 10 µM,CDK5/p35NCK,101%
same,remaining activity at 10 µM,PCTAIRE1/CycY,95.4%
same,tumor cell growth at physiological uridine levels,ARN8 cells,markedly reduce tumor cell growth
"COc1ccc(C2=N[C@@H](c3ccc(Cl)cc3)[C@@H](c3ccc(Cl)cc3)N2C(=O)N2CCNC(=O)C2)c(OC(C)C)c1 [nutlin-3, reference compound]",toxicity in xenograft study,ARN8 xenograft,treatments had to be discontinued after 9 days due to the toxicity
same,half-life on co-administration with (R)-HZ00,[2],not prolonged
